# According to patent US12319695B2, “Sulfonamide derivative with fused pyrimidine skeleton, having epidermal growth factor receptor mutation inhibitory effect” (HANMI PHARM. CO., LTD., priority 2018, dated 2025):
# System: PC9 EGFR del19/T790M/C797S cells
# Experiment: PC9 EGFR del19/T790M/C797S cell growth inhibition test (CellTiter-Glo, 72 hours)
# Format: cell-based
# Details: Homo sapiens, PC-9, PC9 cell line overexpressing EGFR del19/T790M/C797S
# Experimental: For cell growth conditions, an RPMI Medium 1640 (1×) containing 10% FBS and 1% penicillin/straptomycin (Gibco BRL) was used.
# Specifically, the cell line stored in a liquid nitrogen tank was taken out, rapidly dissolved at 37° C., and thereafter centrifuged to remove the cryopreservation medium. The recovered cell pellets were well mixed in a culture medium, put into a culture flask, and passaged under conditions of 37° C. and 5% carbon dioxide to stabilize the cells to logarithmic cell growth phase. Thereafter, cells were taken from the flask, centrifuged to remove the culture medium, washed with Dulbecco's phosphate buffered saline (DPBS), and then centrifuged again to remove DPBS, and then diluted with a culture medium to have 1×10^5 cells/ml. The diluted cells were dispensed into a 96-well plate at 100 μl per well. The compounds prepared in the above examples were each dissolved in 99.5% dimethylsulfoxide (hereinafter, DMSO, cell culture grade) to a concentration of 10 mM. The DMSO solution containing each compound was diluted with a culture medium to a concentration of 30 μM, and then tenfold serial dilution was used to prepare a solution diluted upto 0.3 nM (in order to reach a final DMSO concentration of 1% or less).
# The cells treated with the test solution were cultured under conditions of 37° C. and 5% carbon dioxide for 72 hours. After the 96-well plate in which the cells were cultured was acclimated to room temperature for 30 minutes, CellTiter-Glo® Luminescent Cell Assay Reagent (CTG, Promega) was dispensed at 50 μl per well. After stabilizing luminescence signals for 10 minutes, the luminescence intensity was measured with a microplate reader.
# Based on the measured value, a […] value of each compound, which is the concentration at which cell growth is inhibited by 50%, was calculated with respect to 100% of the value obtained by subtracting the initial cell density value of a well not treated with a test material from the final cell density value thereof. The GI50 value of each compound was calculated using nonlinear regression of GraphPad Prism; log[inhibitor] vs. normalized response analysis.
row,GI50,Structure (SMILES)
1,564 nM,"CCN1CCC2(CCN(c3ccc(Nc4nc(Nc5ccccc5N(C)S(=O)(=O)CC)c5cc[nH]c5n4)cc3F)CC2)C1 [Example 56, N-(2-((2-((4-(2-ethyl-2,8-diazaspiro[4.5]decan-8-yl)-3-fluorophenyl)amino)-7H-pyrrolo[2,3-d]pyrimidine-4-yl)amino)phenyl)-N-methylethanesulfonamide]"
2,641 nM,"CN(c1ccccc1Nc1nc(Nc2ccc(N3CCN(C4CC4)CC3)c(F)c2)nc2[nH]ccc12)S(C)(=O)=O [Example 11, N-(2-((2-((3-fluoro-4-(4-cyclopropylpiperazin-1-yl)phenyl)amino)-7H-pyrrolo[2,3-d]pyrimidine-4-yl)amino)phenyl)-N-methylmethanesulfonamide]"
3,131 nM,"CC(C)N1CCN(C2CCN(c3ccc(Nc4nc(Nc5ccccc5N(C)S(C)(=O)=O)c5cc[nH]c5n4)cc3F)CC2)CC1 [Example 15, N-(2-((2-((3-fluoro-4-(4-(4-isopropylpiperazin-1-yl)piperidin-1-yl)phenyl)amino)-7H-pyrrolo[2,3-d]pyrimidine-4-yl)amino)phenyl)-N-methylmethanesulfonamide]"
4,369 nM,"CCN1CCN(c2c(F)cc(Nc3nc(Nc4ccccc4N(C)S(C)(=O)=O)c4cc[nH]c4n3)cc2F)CC1 [Example 26, N-(2-((2-((4-(4-ethylpiperazin-1-yl)-3,5-difluorophenyl)amino)-7H-pyrrolo[2,3-d]pyrimidine-4-yl)amino)phenyl)-N-methylmethanesulfonamide]"
5,3380 nM,"CN1CCN(C2CCN(c3ccc(Nc4nc(Nc5ccccc5N(C)S(C)(=O)=O)c5ccn(C)c5n4)cc3F)CC2)CC1 [Example 65, N-(2-((2-((3-fluoro-4-(4-(4-methylpiperazin-1-yl)piperidin-1-yl)phenyl)amino)-7-methyl-7H-pyrrolo[2,3-d]pyrimidine-4-yl)amino)phenyl)-N-methylmethanesulfonamide]"
6,311 nM,"CN(c1ccccc1Nc1nc(Nc2ccc(N3CCC(N4CCN(C5CC5)CC4)CC3)c(F)c2)nc2[nH]ccc12)S(C)(=O)=O [Example 17, N-(2-((2-((3-fluoro-4-(4-(4-cyclopropylpiperazin-1-yl)piperidin-1-yl)phenyl)amino)-7H-pyrrolo[2,3-d]pyrimidine-4-yl)amino)phenyl)-N-methylmethanesulfonamide]"
7,420 nM,"CC(C)N1CCN(c2ccc(Nc3nc(Nc4ccccc4N(C)S(C)(=O)=O)c4cc[nH]c4n3)cc2F)CC1 [Example 9, N-(2-((2-((3-fluoro-4-(4-isopropylpiperazin-1-yl)phenyl)amino)-7H-pyrrolo[2,3-d]pyrimidine-4-yl)amino)phenyl)-N-methylmethanesulfonamide]"
8,530 nM,"CCN1CCN(C2CCN(c3ccc(Nc4nc(Nc5ccccc5N(C)S(=O)(=O)CC)c5cc[nH]c5n4)cc3F)CC2)CC1 [Example 54, N-(2-((2-((4-(4-(4-ethylpiperazin-1-yl)piperidin-1-yl)-3-fluorophenyl)amino)-7H-pyrrolo[2,3-d]pyrimidine-4-yl)amino)phenyl)-N-methylethanesulfonamide]"
9,538 nM,"CCCN1CCN(c2ccc(Nc3nc(Nc4ccccc4N(C)S(C)(=O)=O)c4cc[nH]c4n3)cc2F)CC1 [Example 10, N-(2-((2-((3-fluoro-4-(4-propylpiperazin-1-yl)phenyl)amino)-7H-pyrrolo[2,3-d]pyrimidine-4-yl)amino)phenyl)-N-methylmethanesulfonamide]"
10,858 nM,"CCN1CCN(c2ccc(Nc3nc(Nc4ccccc4NS(C)(=O)=O)c4cc[nH]c4n3)cc2F)CC1 [Example 49, N-(2-((2-((4-(4-ethylpiperazin-1-yl)-3-fluorophenyl)amino)-7H-pyrrolo[2,3-d]pyrimidine-4-yl)amino)phenyl)methanesulfonamide]"
